Data from US9056804B2, “Urease inhibitor formulations” (Incitec Pivot Limited, priority 2011, dated 2015).

Experiments:
[1] = system: fish, algae and invertebrates; conditions: cited from earlier work
[2] = system: urease; test: Soil-water suspension incubation, ammonium formed from urea (17 days); format: biochemical; conditions: 72% inhibition at 50 μg/200 ml versus NBPT at 400 μg/200 ml
Method: The ammonium produced was measured as per Example 9.

SMILES | LC50 [1] | activity relative to NBPT [2]
O=S1(=O)CCCC1 [tetramethylene sulfone] | greater than 1000 mg/l | –
NP(N)(=O)Nc1ccccc1[N+](=O)[O-] [Example 2-NPT, 2-nitrophenyl phosphoric triamide] | – | about eight times more active than NBPT
